Laboratory results from patent US12568972B2, “Pyridazinol compounds and derivatives, preparation methods, herbicidal compositions and applications thereof” (Qingdao Kingagroot Chemical Compound Co., Ltd., priority 2018, dated 2026).

How the values were obtained:
Test in all cases: Post-emergence test, weed control effect
Type in all cases: in vivo
Settings in all cases: after 3 weeks
Veronica polita = test system: Veronica polita
Summary of the method: (§1)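 Activity is expressed as a level from 0 (no effect) to 10 (plant dead), each step matching a further 10% fresh-weight inhibition, assessed 3 weeks post-treatment. Treatment: spray at 2-3 leaf stage of pot-grown plants, compound in acetone, Tween-80 and water with 80% vegetable oil methyl ester synergist at 1500 g/ha.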

Amaranthus retroflexus = test system: Amaranthus retroflexus
Summary of the method: as §1

Chenopodiaceae = test system: Chenopodiaceae
Summary of the method: as §1

Rorippa indica = test system: Rorippa indica
Summary of the method: as §1

O=C(Oc1cc(C(F)(F)F)nnc1-c1ccc(F)cc1)N1CCOCC1 [Compound 1-68]
10: weed control effect, Veronica polita (activity level) (Veronica polita; Dose 3000 g/ha) | weed control effect, Amaranthus retroflexus (activity level) (Amaranthus retroflexus; Dose 3000 g/ha) | weed control effect, Chenopodiaceae (activity level) (Chenopodiaceae; Dose 3000 g/ha) | weed control effect, Rorippa indica (activity level) (Rorippa indica; Dose 3000 g/ha)

CC(C)OC(=O)OC(C)Oc1cc(C(F)(F)F)nnc1-c1ccccc1 (centres unmarked) [Compound 1-240]
10: weed control effect, Veronica polita (activity level) (Veronica polita; Dose 3000 g/ha) | weed control effect, Amaranthus retroflexus (activity level) (Amaranthus retroflexus; Dose 3000 g/ha) | weed control effect, Chenopodiaceae (activity level) (Chenopodiaceae; Dose 3000 g/ha) | weed control effect, Rorippa indica (activity level) (Rorippa indica; Dose 3000 g/ha)

O=C(/C=C\c1ccccc1)Oc1cc(C(F)(F)F)nnc1-c1ccc(Cl)cc1 [Compound 1-96]
10: weed control effect, Veronica polita (activity level) (Veronica polita; Dose 3000 g/ha) | weed control effect, Amaranthus retroflexus (activity level) (Amaranthus retroflexus; Dose 3000 g/ha) | weed control effect, Chenopodiaceae (activity level) (Chenopodiaceae; Dose 3000 g/ha) | weed control effect, Rorippa indica (activity level) (Rorippa indica; Dose 3000 g/ha)

Cn1ncc(Cl)c1-c1nnc(C(F)(F)F)cc1O [Compound 805]
10: weed control effect (activity level), Veronica polita (Veronica polita; Dose 3000 g/ha) | weed control effect (activity level), Amaranthus retroflexus (Amaranthus retroflexus; Dose 3000 g/ha) | weed control effect (activity level), Chenopodiaceae (Chenopodiaceae; Dose 3000 g/ha) | weed control effect (activity level), Rorippa indica (Rorippa indica; Dose 3000 g/ha)

Oc1cc(C(F)(F)F)nnc1-c1cnccc1I [Compound 972]
10: weed control effect (activity level), Veronica polita (Veronica polita; Dose 3000 g/ha) | weed control effect (activity level), Amaranthus retroflexus (Amaranthus retroflexus; Dose 3000 g/ha) | weed control effect (activity level), Chenopodiaceae (Chenopodiaceae; Dose 3000 g/ha) | weed control effect (activity level), Rorippa indica (Rorippa indica; Dose 3000 g/ha)

CCON(C)C(=O)Oc1cc(C(F)(F)F)nnc1-c1ccc(F)cc1 [Compound 1-63]
10: weed control effect, Veronica polita (activity level) (Veronica polita; Dose 3000 g/ha) | weed control effect, Amaranthus retroflexus (activity level) (Amaranthus retroflexus; Dose 3000 g/ha) | weed control effect, Chenopodiaceae (activity level) (Chenopodiaceae; Dose 3000 g/ha) | weed control effect, Rorippa indica (activity level) (Rorippa indica; Dose 3000 g/ha)

Oc1cc(C(F)(F)F)nnc1-c1c(F)ccc(F)c1F [Compound 54]
10: weed control effect (activity level), Veronica polita (Veronica polita; dose 1000 g/ha) | weed control effect (activity level), Amaranthus retroflexus (Amaranthus retroflexus; dose 1000 g/ha) | weed control effect (activity level), Chenopodiaceae (Chenopodiaceae; dose 1000 g/ha) | weed control effect (activity level), Rorippa indica (Rorippa indica; dose 1000 g/ha)

Cc1cc(F)ccc1-c1nnc(C(F)(F)F)cc1O [Compound 58]
10: weed control effect (activity level), Veronica polita (Veronica polita; dose 1000 g/ha) | weed control effect (activity level), Amaranthus retroflexus (Amaranthus retroflexus; dose 1000 g/ha) | weed control effect (activity level), Chenopodiaceae (Chenopodiaceae; dose 1000 g/ha) | weed control effect (activity level), Rorippa indica (Rorippa indica; dose 1000 g/ha)

O=C(Oc1cc(C(F)(F)F)nnc1-c1ccc(F)cc1)C(F)(F)C(F)(F)C(F)(F)F [Compound 1-25]
10: weed control effect, Veronica polita (activity level) (Veronica polita; Dose 3000 g/ha) | weed control effect, Amaranthus retroflexus (activity level) (Amaranthus retroflexus; Dose 3000 g/ha) | weed control effect, Chenopodiaceae (activity level) (Chenopodiaceae; Dose 3000 g/ha) | weed control effect, Rorippa indica (activity level) (Rorippa indica; Dose 3000 g/ha)

O=S(=O)(Oc1cc(C(F)(F)F)nnc1-c1ccc(Cl)cc1)c1cccc(OC(F)F)c1 [Compound 1-139]
10: weed control effect, Veronica polita (activity level) (Veronica polita; Dose 3000 g/ha) | weed control effect, Amaranthus retroflexus (activity level) (Amaranthus retroflexus; Dose 3000 g/ha) | weed control effect, Chenopodiaceae (activity level) (Chenopodiaceae; Dose 3000 g/ha) | weed control effect, Rorippa indica (activity level) (Rorippa indica; Dose 3000 g/ha)

O=C(Oc1cc(C(F)(F)F)nnc1-c1ccccc1)c1ccc2occc2c1 [Compound 1-117]
10: weed control effect, Veronica polita (activity level) (Veronica polita; Dose 3000 g/ha) | weed control effect, Amaranthus retroflexus (activity level) (Amaranthus retroflexus; Dose 3000 g/ha) | weed control effect, Chenopodiaceae (activity level) (Chenopodiaceae; Dose 3000 g/ha) | weed control effect, Rorippa indica (activity level) (Rorippa indica; Dose 3000 g/ha)

Oc1cc(C(F)(F)F)nnc1-c1ccc(F)cc1Cl [Compound 44]
10: weed control effect (activity level), Veronica polita (Veronica polita; dose 1000 g/ha) | weed control effect (activity level), Amaranthus retroflexus (Amaranthus retroflexus; dose 1000 g/ha) | weed control effect (activity level), Chenopodiaceae (Chenopodiaceae; dose 1000 g/ha) | weed control effect (activity level), Rorippa indica (Rorippa indica; dose 1000 g/ha)

Cc1cnn(C)c1-c1nnc(C(F)(F)F)cc1O [Compound 808]
10: weed control effect (activity level), Veronica polita (Veronica polita; Dose 3000 g/ha) | weed control effect (activity level), Amaranthus retroflexus (Amaranthus retroflexus; Dose 3000 g/ha) | weed control effect (activity level), Chenopodiaceae (Chenopodiaceae; Dose 3000 g/ha) | weed control effect (activity level), Rorippa indica (Rorippa indica; Dose 3000 g/ha)

O=Cc1ccc(-c2nnc(C(F)(F)F)cc2O)c(F)c1 [Compound 64]
10: weed control effect (activity level), Veronica polita (Veronica polita; dose 1000 g/ha) | weed control effect (activity level), Amaranthus retroflexus (Amaranthus retroflexus; dose 1000 g/ha) | weed control effect (activity level), Chenopodiaceae (Chenopodiaceae; dose 1000 g/ha) | weed control effect (activity level), Rorippa indica (Rorippa indica; dose 1000 g/ha)

Cn1nc(Cl)cc1-c1nnc(C(F)(F)F)cc1O [Compound 776]
10: weed control effect (activity level), Veronica polita (Veronica polita; Dose 3000 g/ha) | weed control effect (activity level), Amaranthus retroflexus (Amaranthus retroflexus; Dose 3000 g/ha) | weed control effect (activity level), Chenopodiaceae (Chenopodiaceae; Dose 3000 g/ha) | weed control effect (activity level), Rorippa indica (Rorippa indica; Dose 3000 g/ha)

O=S(=O)(Oc1cc(C(F)(F)F)nnc1-c1ccc(F)cc1)c1ccc(Cl)cc1Cl [Compound 1-133]
10: weed control effect, Veronica polita (activity level) (Veronica polita; Dose 3000 g/ha) | weed control effect, Amaranthus retroflexus (activity level) (Amaranthus retroflexus; Dose 3000 g/ha) | weed control effect, Chenopodiaceae (activity level) (Chenopodiaceae; Dose 3000 g/ha) | weed control effect, Rorippa indica (activity level) (Rorippa indica; Dose 3000 g/ha)

Oc1cc(C(F)(F)F)nnc1-c1cc(F)cnc1Cl [Compound 1004]
10: weed control effect (activity level), Veronica polita (Veronica polita; Dose 3000 g/ha) | weed control effect (activity level), Amaranthus retroflexus (Amaranthus retroflexus; Dose 3000 g/ha) | weed control effect (activity level), Chenopodiaceae (Chenopodiaceae; Dose 3000 g/ha) | weed control effect (activity level), Rorippa indica (Rorippa indica; Dose 3000 g/ha)
